From patent US5556744A, “Methods and compositions for diagnosing and treating certain HIV infected patients” (The Trustees of the University of Pennsylvania, priority 1994, dated 1996) come the findings set out here.

What all share (design): species or system human
Assay [1] concerns maternal HIV+ sera (antibodies). In words: RIA / ELISA binding of maternal HIV+ sera to gp120 and gp41 peptides (Example 3). The note with it: for Percent of the maternal serum samples that bound to the peptide: all 20 samples; for Correlation of peptide recognition with lack of vertical transmission: in words. The method, boiled down: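 Maternal sera, diluted 1:50 and 1:500, were bound overnight at 4°C to peptides immobilized at 10 μg/ml (pH 9.6 carbonate) and blocked with 1% BSA. Read-out was ¹²⁵I-labelled anti-human IgG counts or HRP-TMB OD450. Signal with peptide minus without was expressed relative to seronegative serum.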

For assay [2], the system named is maternal serum samples (antibodies). In words: ELISA peptide-binding of maternal sera, expanded peptide collection (Example 5). The note with it: for Binding / reactivity of maternal sera to peptide (in words): Example 5. The source says: The gp120 and gp41 peptides used in this experiment include peptides 60 [SEQ ID NO:9], 93 [SEQ ID NO:10], 94 [SEQ ID NO:1], 95 [SEQ ID NO:11], 96 [SEQ ID NO:12], 97 [SEQ ID NO:13], 59 [SEQ ID NO:14], 106 [SEQ ID NO:15], 107 [SEQ ID NO:[…]], 1029/33 [SEQ ID NO:2], p18p [SEQ ID NO:17], B138 [SEQ ID NO:3], 466 [SEQ ID NO:4], 497 [SEQ ID NO:18], 117 [SEQ ID NO:19], F560 [SEQ ID NO:20], 35 [SEQ ID NO:5], 120 [SEQ ID NO:21], 121 [SEQ ID NO:22], 123 [SEQ ID NO:23], 36 [SEQ ID NO:24], 40 [SEQ ID NO:25], 41 [SEQ ID NO:26], 649 [SEQ ID NO:6], 53 [SEQ ID NO:7], 55 [SEQ ID NO:27], 128 [SEQ ID NO:28], 129 [SEQ ID NO:29], 132 [SEQ ID NO:30], 57 [SEQ ID NO:8], and 1103/55 [SEQ ID NO:31] from Table 2. These peptides were synthesized based on the same HIV IIIB isolate as were the peptides of Table 2. Alternative designations for these peptides are provided in brackets.
Each of the peptides was at least 85% pure, making them suitable for ELISA analyses. The average length of these peptides was 18 amino acid residues, which allows for a certain degree of local flexibility and conformational folding, thus facilitating detection of antibody species with reactivities to shaped structures.
The maternal serum samples were obtained from the Mothers/Infants Cohort Study described in Example 1. For the ELISA peptide-binding analyses performed essentially as described in Example 3, maternal serum samples were diluted to 1:50 or 1:500 with blocking buffer (1% bovine serum albumin in phosphate-buffered saline containing 0.05% Tween 20). Binding was measured using 10 μg/mL peptide per well and was considered positive if the experimental/control OD450nm ratio was ≥2. Normal (HIV seronegative) human sera were used as controls.

The test system of assay [3] is maternal sera (antibodies). In words: ELISA peptide-binding of maternal sera (Example 6). The conditions noted are these: for Number of Non-Transmitters which bound to peptide / Percent of Non-Transmitters which bound to peptide: N = 12; for Number of Transmitters which bound to peptide / Percent of Transmitters which bound to peptide: N = 4. The essentials:
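HIV-1 envelope peptides averaging 16 amino acids, covering external and transmembrane glycoprotein, were probed by ELISA. Third-trimester maternal sera, classed as transmitter or non-transmitter by child diagnosis, were each run on at least 40 peptides. Values give percent of sera binding a peptide.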

Where [4] appears, read: Serum No. 1, Non-Transmission Group.
[5] abbreviates: Serum No. 2, Non-Transmission Group.
[6] abbreviates: Serum No. 3, Non-Transmission Group.
Where [7] appears, read: Serum No. 4, Transmission Group.
The mark [8] stands for this setting: Serum No. 5, Transmission Group.
The mark [9] stands for this setting: Serum No. 6, Non-Transmission Group.
Where [10] appears, read: Serum No. 7, Non-Transmission Group.
Where [11] appears, read: Serum No. 8, Non-Transmission Group.
Where [12] appears, read: Serum No. 9, Non-Transmission Group.
The mark [13] stands for this setting: Serum No. 10, Transmission Group.
Where [14] appears, read: Serum No. 11, Non-Transmission Group.
The mark [15] stands for this setting: Serum No. 12, Non-Transmission Group.
[16] abbreviates: Serum No. 13, Transmission Group.
Where [17] appears, read: Serum No. 14, Transmission Group.
[18] abbreviates: Serum No. 15, Transmission Group.
[19] abbreviates: Serum No. 16, Non-Transmission Group.
Where [20] appears, read: Serum No. 17, Non-Transmission Group.
Setting [21] is: Serum No. 18, Non-Transmission Group.
The mark [22] stands for this setting: Serum No. 19, Transmission Group.
[23] abbreviates: Serum No. 20, Non-Transmission Group.

Turning to NATAIAVAEGTDRVIEVVQGAYRAI [1103/55], the “Binding of maternal HIV+ serum to peptide (sera/NHS ratio)” value (“Binding … (sera/NHS ratio)” for short) in assay [1] (setting [4]) is on record as “- (specific OD450 or cpm of sera sample binding to peptide divided by the specific OD450 or cpm of NHS sample binding to peptide, which value is less than 2)”; in assay [1] (setting [5]), “++ (which value is greater than 3)”; in assay [1] (setting [6]), “- (specific OD450 or cpm of sera sample binding to peptide divided by the specific OD450 or cpm of NHS sample binding to peptide, which value is less than 2)”; in assay [1] (setting [7]), “++ (which value is greater than 3)”; in assay [1] (setting [8]), “- (specific OD450 or cpm of sera sample binding to peptide divided by the specific OD450 or cpm of NHS sample binding to peptide, which value is less than 2)”; in assay [1] (setting [9]), “++ (which value is greater than 3)”. Moreover, the “Binding … (sera/NHS ratio)” value in assay [1] (setting [10]) is reported as “++ (which value is greater than 3)”; in assay [1] (setting [11]), “++ (which value is greater than 3)”; in assay [1] (setting [12]), “- (specific OD450 or cpm of sera sample binding to peptide divided by the specific OD450 or cpm of NHS sample binding to peptide, which value is less than 2)”; in assay [1] (setting [13]), “- (specific OD450 or cpm of sera sample binding to peptide divided by the specific OD450 or cpm of NHS sample binding to peptide, which value is less than 2)”; in assay [1] (setting [14]), “- (specific OD450 or cpm of sera sample binding to peptide divided by the specific OD450 or cpm of NHS sample binding to peptide, which value is less than 2)”; in assay [1] (setting [15]), “++ (which value is greater than 3)”. The “Binding … (sera/NHS ratio)” value in assay [1] (setting [16]) was “- (specific OD450 or cpm of sera sample binding to peptide divided by the specific OD450 or cpm of NHS sample binding to peptide, which value is less than 2)”; in assay [1] (setting [17]), “++ (which value is greater than 3)”; in assay [1] (setting [18]) it was “- (specific OD450 or cpm of sera sample binding to peptide divided by the specific OD450 or cpm of NHS sample binding to peptide, which value is less than 2)”; in assay [1] (setting [19]), “- (specific OD450 or cpm of sera sample binding to peptide divided by the specific OD450 or cpm of NHS sample binding to peptide, which value is less than 2)”; in assay [1] (setting [20]), “++ (which value is greater than 3)”; in assay [1] (setting [21]), “++ (which value is greater than 3)”. Moreover, the “Binding … (sera/NHS ratio)” value is “- (specific OD450 or cpm of sera sample binding to peptide divided by the specific OD450 or cpm of NHS sample binding to peptide, which value is less than 2)” in assay [1] (setting [22]) and “- (specific OD450 or cpm of sera sample binding to peptide divided by the specific OD450 or cpm of NHS sample binding to peptide, which value is less than 2)” in assay [1] (setting [23]). Further, the “Percent of the maternal serum samples that bound to the peptide” value in assay [1] is recorded as 45%. Besides, in assay [2], the “Binding / reactivity of maternal sera to peptide (in words)” value (from here on “Binding / reactivity of maternal sera”) is “recognized by the transmission group”. In assay [3], the “Number of Non-Transmitters which bound to peptide” value was 0. In addition, in assay [3], the “Percent of Non-Transmitters which bound to peptide” value is 0%. In addition, in assay [3], the “Number of Transmitters which bound to peptide” value is 0. For the same substance, in assay [3], the “Percent of Transmitters which bound to peptide” value is 0%.
CQNQQEKNEQELLEL [Peptide 649]: the “Difference in binding of samples from transmission vs non-transmission group (Spearman rank-order correlation)” value in assay [1] (Example 3) was “significant statistical difference”. Further, the “Binding … (sera/NHS ratio)” value is listed as “++ (which value is greater than 3)” in assay [1] (setting [4]); “+ (which value is between 2 to 3)” in assay [1] (setting [5]); “+ (which value is between 2 to 3)” in assay [1] (setting [6]); “+ (which value is between 2 to 3)” in assay [1] (setting [7]); “- (specific OD450 or cpm of sera sample binding to peptide divided by the specific OD450 or cpm of NHS sample binding to peptide, which value is less than 2)” in assay [1] (setting [8]); “++ (which value is greater than 3)” in assay [1] (setting [9]). The “Binding … (sera/NHS ratio)” value in assay [1] (setting [10]) is “++ (which value is greater than 3)”; in assay [1] (setting [11]) it was “++ (which value is greater than 3)”; in assay [1] (setting [12]), “- (specific OD450 or cpm of sera sample binding to peptide divided by the specific OD450 or cpm of NHS sample binding to peptide, which value is less than 2)”; in assay [1] (setting [13]), “- (specific OD450 or cpm of sera sample binding to peptide divided by the specific OD450 or cpm of NHS sample binding to peptide, which value is less than 2)”; in assay [1] (setting [14]), “++ (which value is greater than 3)”; in assay [1] (setting [15]), “++ (which value is greater than 3)”. Moreover, the “Binding … (sera/NHS ratio)” value is “- (specific OD450 or cpm of sera sample binding to peptide divided by the specific OD450 or cpm of NHS sample binding to peptide, which value is less than 2)” in assay [1] (setting [16]); “+ (which value is between 2 to 3)” in assay [1] (setting [17]); “+ (which value is between 2 to 3)” in assay [1] (setting [18]); “- (specific OD450 or cpm of sera sample binding to peptide divided by the specific OD450 or cpm of NHS sample binding to peptide, which value is less than 2)” in assay [1] (setting [19]); “+ (which value is between 2 to 3)” in assay [1] (setting [20]); “+ (which value is between 2 to 3)” in assay [1] (setting [21]). Further, the “Binding … (sera/NHS ratio)” value in assay [1] (setting [22]) is “- (specific OD450 or cpm of sera sample binding to peptide divided by the specific OD450 or cpm of NHS sample binding to peptide, which value is less than 2)”; in assay [1] (setting [23]), “- (specific OD450 or cpm of sera sample binding to peptide divided by the specific OD450 or cpm of NHS sample binding to peptide, which value is less than 2)”. Further, the “Percent of the maternal serum samples that bound to the peptide” value in assay [1] is recorded as 70%. Also, the “Correlation of peptide recognition with lack of vertical transmission” value in assay [1] is on record as “correlated with non-transmission status”; in assay [1] (listed as SEQ ID NO: 6), “clearly correlated to non-transmission status”. For the same substance, the “Binding / reactivity of maternal sera” value in assay [2] is listed as “recognized by the transmission group”. The “Number of Non-Transmitters which bound to peptide” value in assay [3] is recorded as 7. Further, the “Percent of Non-Transmitters which bound to peptide” value in assay [3] is 43.8%. Further, in assay [3], the “Number of Transmitters which bound to peptide” value stood at 2. Moreover, in assay [3], the “Percent of Transmitters which bound to peptide” value was determined as 50%.
With “56: gp41 peptide, amino acids 747-767, HIV strain IIIB, SEQ ID NO: 156 (RLVNGSLALIWDDLRSLCLFS) [Peptide 56]”, the “Binding / reactivity of maternal sera” value in assay [2] is given as “recognized by the transmission group”. Also, in assay [2] (transmission and non-transmission groups), the “Percent of both groups that bound to the peptide” value was “more than 50%”. In assay [3], the “Number of Non-Transmitters which bound to peptide” value is reported as 0, the “Percent of Non-Transmitters which bound to peptide” value came out at 0%, the “Number of Transmitters which bound to peptide” value was 0 and the “Percent of Transmitters which bound to peptide” value was 0%.
For “58: gp41 peptide, amino acids 794-817, HIV strain IIIB, SEQ ID NO: 173 (KYWWNLLQYWSQELKNSAVSLLNA) [Peptide 58]”, in assay [2], the “Binding / reactivity of maternal sera” value is given as “recognized by the transmission group”. Moreover, in assay [3], the “Number of Non-Transmitters which bound to peptide” value was determined as 3, the “Percent of Non-Transmitters which bound to peptide” value was 25%, the “Number of Transmitters which bound to peptide” value is recorded as 0 and the “Percent of Transmitters which bound to peptide” value came out at 0%.
